Entries after “also recorded” stand apart in the source; their conditions may differ.

We go through one compound from patent US12404332B2, “Methods for diagnosing and treating cancers” (Research Development Foundation, priority 2020, dated 2025).

For one test, the system named is PD-L1. Nature of the test: Tumor cell PD-L1 depletion by drugs (flow cytometry, immunoblot). It counts as cell-based, human and mouse. The protocol:
High throughput Screening: B16 PD-L1 RFP cells were treated with 2.5 and 10 μM compounds from the Prestwick and LOPAC Libraries for 48 hours using the Agilent Bravo liquid pipetting platform. Then, cells were washed with PBS, and fixed with 4% paraformaldehyde (Electron Microscopy Sciences, Hatsfield, PA, Cat 15714S) and labeled with 2 μg/ml DAPI, (Molecular Probes, Cat D1306) and 1 μg/ml Cell Mask-Blue (Invitrogen, Cat. H32720). Plates were then imaged using the Operetta High Content Imaging System, Perkin Elmer, Waltham (DAPI and Cell Mask Blue, Ex 360-400, Em 410-480), and the RFP channels (Ex 520-550, Em 560-630) channels. Agents effecting ≥2-fold PD-L1 reduction in the RFP reporter without loss of ≥20% cell viability were candidate PD-L1 depletion agents.
(§1) Flow cytometry: Mice were sacrificed by cervical dislocation after induction of deep isoflurane anesthesia. ID8agg tumors were collected and cells were stained as described (Derup et al., 2020) using LSR II hardware and analyzed by FACS Diva (BD Bioscience) or Flow Jo software (Flow Jo, LLC). Anti-mouse (clone 10F.9G2) and human (clone 29E.2A3) PD-L1 [both PE/Cy7, Cat #124314 (mouse) 329718 (human)] were matched with isotype control. Apoptosis assessment used Annexin V and propidium iodide (Thermo Scientific) per manufacturer instruction.
(§2) Western blotting and immunoprecipitation: To prepare whole cell lysates, cells were harvested and lysed in RIPA (radioimmunoprecipitation assay) buffer plus 1 mM phenylmethylsulphonyl fluoride and Halt protease/phosphatase inhibitor cocktail (Thermo Scientific) at 4° C. Protein concentrations were measured by BCA Protein Assay Kit (Thermo Scientific). Protein was run on precast 4-15% sodium dodecyl sulfate polyacrylamide gels (Bio-Rad), transferred to polyvinylidene fluoride membranes (GE Water and Process Technologies), and then blocked in 5% non-fat milk for 1 hour at room temperature. The membranes were then incubated with 1:1000 diluted primary antibodies against indicated proteins (Cell Signaling). Specific antibody binding was detected by chemiluminescence using Western Lightening Plus regent (Perkin Elmer). Cells for (co) immunoprecipitation experiments were seeded in 15-cm dishes and cultured as described, using 6 million cells per immunoprecipitation reaction. For protein ubiquitination, cells were lysed in denaturing buffer (50 mM Tris-HCl, 0.5 mM EDTA and 1% SDS) followed by heating at 95° C. for 10 minutes and then quenched with 9 volumes of quenching buffer (0.5% Triton X-100, 20 mM Tris-HCl (pH 8.0), 137 mM NaCl, 10% glycerol, 2 mM EDTA). Protease inhibitor cocktail (Roche) was added fresh to all buffers. Cell lysates were incubated on a rotator for 30 minutes at 4° C., and then centrifuged at 20,000 g for 15 minutes at 4° C. Supernatants were subsequently incubated with anti-PD-L1 antibody overnight and processed using Dynabeads Protein G for Immunoprecipitation (Thermo Fisher Scientific). The final eluate was processed and Western blotting was performed.

Another test deals with mTORC1. Kind of test: Western blots for mTORC1 pathway and LC3 autophagy. It is filed as cell-based. As for the experimental part: FIGS. 40A-C: CAMB suppresses mTORC1 signals and reduces TIC numbers. FIG. 40A, Western blots for proteins in the mTORC1 pathway. Cells were treated with chlorambucil as indicated concentration for 48 hours. FIG. 40B, Western blot for LC3I/II to assess autophagy in cell lysates treated±chlorambucil at indicated concentrations. FIG. 40C, Percent of ALDH^hi TIC by flow cytometry of ES2 cells cultured±chlorambucil. Percent CD44^+CD24^+ ID8agg TIC and CD44^+CD133^+CD24^+ B16 TIC detected by flow cytometry.
as §2

In a further test the test system is PD-L1 in ID8agg cells. Kind of test: PD-L1 mRNA (RT-qPCR) in ID8agg cells. It is filed as cell-based, mouse. As for the experimental part:
FIGS. 39A-C: CAMB reduces PD-L1 through ubiquitination. FIG. 39A, RT-qPCR for PD-L1 mRNA in OVCAR5 and ID8agg cells treated with (+) or without (−) chlorambucil for 48 hours. (n=4). FIG. 39B, Western blot for PD-L1 protein in OVCAR5 cells with (+) or without (−) MG132 for 6 or 20 hours. (upper panel). PD-L1 expression in OVCAR5 cells treated with chlorambucil 48 hours and/or MG132 for 6 hours (lower panel). FIG. 39C, Ubiquitinated PD-L1 was immunoprecipitated (IP) and subjected to Western blot analysis with anti-ubiquitin (Ub) antibody. Cells were treated with chlorambucil for indicated times prior to ubiquitination analysis.
Quantitative Real-Time Reverse Transcriptase Polymerase Chain Reaction: Total RNA was isolated from homogenized whole lung tissue with Trizol reagent (Invitrogen) according to manufacturer instructions. Subsequently, cDNA was synthesized with 1-2 μg of total RNA using the, SuperScript III reverse transcriptase (Invitrogen). Quantitative PCR (qPCR) was conducted using the Bio-Rad Real-Time PCR System (Applied Biosystems), amplified with transcript-specific primers with SYBR Green (Thermo Scientific), according to manufacturer instructions. Mouse primers were: Tyr, 5′-[…]-3′ (SEQ ID NO: 1) and 5′-[…]-3′ (SEQ ID NO: 2); gp100, 5′-[…]-3′ (SEQ ID NO: 3) and 5′-ID NO: 4); Trp-2, 5′-[…]-3′ (SEQ […]-3′ (SEQ ID NO: 5) and 5′-[…] […]
On the technique in general: Quantitative PCR measures a nucleic acid by following its amplification.

Test [1] deals with PD-1 and β2M on OVCAR5 (human ovarian) cells. Kind of test: PD-1 and B2M expression on OVCAR5 cells. It is filed as cell-based. As for the experimental part:
Tumor and ascites were collected for flow cytometry analyses. Summary graph of CD45-PD-L1 cell percentage and MFI. FIG. 33D, PD-1 and B2M expression on OVCAR5 (human ovarian) cells treated with (+) or without (−) chlorambucil for 48 hours.
as §1

For the compound `O=C(O)CCCc1ccc(N(CCCl)CCCl)cc1` [chlorambucil], the “effect on cell viability” value in the test with PD-L1 (over 2-3 days, human and mouse tumor lines) is given as “little effect on cell viability”. The “expression of PD-L1 in cancer cells” value with PD-L1 (summary statement) is reported as “decreased expression of PD-L1”. In the test on mTORC1, the autophagy result is on record as “promote autophagy” and the mTORC1 signals result was “suppress mTORC1 signals; also recorded: inhibits mTORC1 signaling”. Besides, in the test with mTORC1 (Western blot), the “LC3 lipidation (LC3 I and II)” value is reported as “increased LC3 lipidation”; the “phosphorylation of P70S6K and 4EBP1” value is “reduced phosphorylation of P70S6K and 4EBP1 in a dose-dependent manner”. In the test on PD-L1 in ID8agg cells, the “PD-L1 mRNA” value is listed as “significantly reduced”. For the same compound, the “PD-1 and β2M on the cell surface” value in test [1] is given as “Upregulation”.
